Values quoted from earlier work as cited in US9161933B2, “Solid pharmaceutical composition comprising amlodipine and losartan and process for producing same” (HANMI SCIENCE CO., LTD, priority 2009, dated 2015).

Details: after food absorption

CCCCc1nc(Cl)c(CO)n1Cc1ccc(-c2ccccc2-c2nn[nH]n2)cc1 [losartan, 2-butyl-4-chloro-1-[[2′-(1H-tetrazol-5-yl)[1,1′-biphenyl]-4-yl]methyl]-1H-imidazol-5-methanol]
reduction of Cmax of losartan: about 10%
